Measurements from the supplement of paper PMC10307832.

What was measured:
Test in all cases: relative viability (nuclei count vs DMSO), 5 days (fraction); higher = more cells survive
[1] = compound: N[C@@H]1CCCN(c2c(/C=C3\SC(=O)NC3=O)cccc2-c2ccccc2)C1 [AZD1208] + C[C@]1(O)C[C@@H](c2nc(-c3ccc4ccc(-c5ccccc5)nc4c3)c3c(N)nccn32)C1 [Linsitinib] (partner 1 µM)
How it was run: (§1)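 A single step with final 0.05% Triton X-100, 1% formaldehyde and 1 ug/ml Hoechst fixed the cells and stained nuclei 5 days after treatment. Lung cancer cell lines in 1536-well plates had been treated by pin tool the day after seeding with one drug alone or a fixed anchor-drug dose plus five library-drug doses (not always all listed) in √10 steps, and nuclei were counted on 4× images. Relative viability is the ratio of nuclei in treated wells to nuclei in vehicle wells, taken as the median of duplicate plates.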

[2] = compound: CN1CCN(CC1)C2=CC(=C(C=C2)NC3=NC(=C(S3)C(=O)C4=C(C=CC=C4Cl)Cl)N)OC [XMD14-99] + O=C(c1cc(Cc2n[nH]c(=O)c3ccccc23)ccc1F)N1CCN(C(=O)C2CC2)CC1 [Olaparib] (partner 8 µM)
How it was run: as §1

[3] = compound: N[C@@H]1CCCN(c2c(/C=C3\SC(=O)NC3=O)cccc2-c2ccccc2)C1 [AZD1208] + Nc1ncn([C@H]2C[C@H](O)[C@@H](CO)O2)c(=O)n1 [Decitabine] (partner 2 µM)
How it was run: as §1

[4] = compound: CN1CCN(CC1)C2=CC(=C(C=C2)NC3=NC(=C(S3)C(=O)C4=C(C=CC=C4Cl)Cl)N)OC [XMD14-99] + CCNC(=O)c1noc(-c2cc(C(C)C)c(O)cc2O)c1-c1ccc(CN2CCOCC2)cc1 [Luminespib] (partner 0.01 µM)
How it was run: as §1

Row | Cell Line | relative viability ([1]; first compound 0.08 µM) | relative viability ([1]; first compound 0.253 µM) | relative viability ([1]; first compound 0.8 µM) | relative viability ([1]; first compound 2.53 µM) | relative viability ([1]; first compound 8 µM) | relative viability ([2]; first compound 0.08 µM) | relative viability ([2]; first compound 0.8 µM) | relative viability ([2]; first compound 2.53 µM) | relative viability ([2]; first compound 8 µM) | relative viability ([3]; first compound 0.08 µM) | relative viability ([3]; first compound 0.253 µM) | relative viability ([3]; first compound 0.8 µM) | relative viability ([3]; first compound 2.53 µM) | relative viability ([3]; first compound 8 µM) | relative viability ([4]; first compound 0.08 µM) | relative viability ([4]; first compound 0.8 µM) | relative viability ([4]; first compound 2.53 µM) | relative viability ([4]; first compound 8 µM)
1 | NCI-H1944 | 1.14 | 1.19 | 1.01 | 0.953 | 0.82 | 0.448 | 0.404 | 0.397 | 0.283 | 0.42 | 0.437 | 0.467 | 0.355 | 0.372 | 0.672 | 0.754 | 0.533 | 0.575
2 | NCI-H1975 | 0.991 | 1 | 0.911 | 0.981 | 0.975 | 0.705 | 0.861 | 0.743 | 0.522 | 0.356 | 0.412 | 0.357 | 0.377 | 0.284 | 0.268 | 0.238 | 0.206 | 0.209
3 | NCI-H1993 |  | 0.722 | 0.731 | 0.739 | 0.654 | 1.11 | 0.942 | 0.943 | 0.793 | 0.526 | 0.586 | 0.613 | 0.5 | 0.468 | 0.849 | 0.761 | 0.782 | 0.632
4 | NCI-H2009 | 1.22 | 1.13 | 1.18 | 1.14 | 1.12 | 0.662 | 0.835 | 0.656 | 0.538 | 0.41 | 0.374 | 0.346 | 0.39 | 0.336 | 1.08 | 0.949 | 0.958 | 0.871
5 | NCI-H2023 | 0.651 | 0.56 | 0.576 | 0.633 | 0.568 | 0.442 |  | 0.311 | 0.122 | 0.232 | 0.193 | 0.199 | 0.206 | 0.225 | 0.719 |  | 0.617 | 0.471
6 | NCI-H2085 | 0.913 | 1.04 | 0.892 | 0.939 | 0.946 | 0.773 | 0.694 | 0.718 | 0.605 | 0.555 | 0.491 | 0.587 | 0.544 | 0.449 | 0.429 | 0.41 | 0.377 | 0.368
7 | NCI-H2087 | 0.87 | 0.941 | 0.934 | 1 | 0.787 | 0.506 | 0.476 | 0.515 | 0.382 | 0.229 | 0.307 | 0.258 | 0.236 | 0.25 | 0.151 | 0.173 | 0.179 | 0.135
8 | NCI-H2126 | 0.678 | 0.647 | 0.65 | 0.633 | 0.623 | 0.96 | 0.87 | 0.736 | 0.759 | 0.563 | 0.641 | 0.523 | 0.501 | 0.475 | 0.966 | 0.827 | 0.873 | 0.595
9 | NCI-H2347 | 0.936 | 0.94 | 0.91 | 0.942 | 0.909 | 0.557 | 0.568 | 0.601 | 0.446 | 0.599 | 0.631 | 0.564 | 0.671 | 0.645 | 0.337 | 0.339 | 0.368 | 0.301
